From patent US8889848B2, “HCV genotype 3 replicons” (priority 2011, dated 2014)
Read-outs that look alike come from different tables or passages of the source.

Assays:
Format in all cases: cell-based, HCV
[1] = system: Pi-Rluc-GT3a-P89L/K583E replicon; test: Transient replicon antiviral assay, Pi-Rluc-GT3a-P89L/K583E in 1C cells; conditions: for GT3a(P89L/K583E)/Ib EC50 Ratio: EC50 GT3a P89L/K583E divided by EC50 GT1b; for EC50: transient transfection, 1C cells, 3 days, renilla luciferase, mean of at least two experiments
Experimental: (§1) Replicon RNA were electroporated into 1C cells as described above. After transfection, cells were quickly transferred into 100 mL of pre-warmed culture medium, and 90 μl was seeded in 384-well plates at a density of 2,000 cells/well. Cells were treated with three-fold serial drug dilutions at 10 different concentrations. Cell plates were incubated at 37° C. for 3 days, after which culture medium was removed and cells were assayed for luciferase activity as markers for replicon levels. Luciferase expression was quantified using a commercial luciferase assay (Promega). Luciferase levels were converted into percentages relative to the levels in the untreated controls (defined as 100%), and data were fitted to the logistic dose-response equation y=a/[1+(x/b)^c] using XLFit4 software (IDBS, Emeryville, Calif.).
(§2) To investigate antiviral activity against genotype 3a, five different classes of HCV inhibitors were tested in a transient assay of the genotype 3a Pi-Rluc replicon: NS3 protease, NS5A, NS5B active site, NS5B non-active site, and host factor inhibitors. A standard genotype 1b Pi-Rluc replicon was tested in parallel. The transient replicon replication assays were performed in 1C cells to minimize the potential influence of host cell difference on compound antiviral activities. EC50 values against both genotype 1b and genotype 3a replicons were successfully generated for all inhibitors using a high-throughput 384-well assay measuring Rluc activity (Table 10).
(§3) Five different classes of HCV inhibitors as listed in the first column were evaluated for their antiviral activities against GT1b and GT3a Pi-Rluc replicon in a transient transfection high-throughput 384-well format by measuring renilla luciferase activity. Data presented in the table represent the mean of at least two independent experiments.

[2] = system: Pi-Rluc-GT3a-P89L/A166T replicon; test: Transient replicon antiviral assay, Pi-Rluc-GT3a-P89L/A166T in 1C cells; conditions: for GT3a(P89L/A166T)/Ib EC50 Ratio: EC50 GT3a P89L/A166T divided by EC50 GT1b; for EC50: transient transfection, 1C cells, 3 days, renilla luciferase, mean of at least two experiments
Experimental: as §1, §2, §3

[3] = system: genotype 1b Pi-Rluc replicon; test: Transient replicon antiviral assay, Pi-Rluc-GT1b in 1C cells; conditions: transient transfection, 3 days, renilla luciferase, mean of at least two experiments
Experimental: as §1, §2, §3

[4] = system: genotype 3a Pi-Rluc replicon; test: Transient genotype 3a Pi-Rluc replicon assay, summary over both GT3a replicons; conditions: for EC50: read-out: EC50 values against genotype 3a
Experimental: as §1, §2

SMILES	GT3a(P89L/K583E)/Ib EC50 Ratio [1]	EC50 ([1]; Hepatitis C virus, GT3A, 72 h)	GT3a(P89L/A166T)/Ib EC50 Ratio [2]	EC50 ([2]; Hepatitis C virus, GT3A, 72 h)	EC50 ([3]; Hepatitis C virus, 72 h)	EC50 ([4]; Hepatitis C virus)	fold less active (less potent) against genotype 3a versus genotype 1b ([4]; transient Pi-Rluc replicons)	EC50 [1]	EC50 [2]	EC50 [3]	EC50 ([4]; range over the two GT3a Pi-Rluc replicons)	fold more active against genotype 3a compared with genotype 1b ([4]; transient Pi-Rluc replicons)	potency against genotype 1b and 3a replicons compared (in words) ([4]; transient Pi-Rluc replicons)
COc1ccc2c(O[C@@H]3C[C@H]4C(=O)N[C@]5(C(=O)O)C[C@H]5/C=C\CCCCC[C@H](NC(=O)OC5CCCC5)C(=O)N4C3)cc(-c3csc(NC(C)C)n3)nc2c1 [BILN-2061]	102	95 nM	478	447 nM	0.93 nM	–	–	–	–	–	–	–	–
COC(=O)N[C@H](C(=O)N1CCC[C@H]1c1nc(-c2ccc(-c3ccc(-c4c[nH]c([C@@H]5CCCN5C(=O)[C@@H](NC(=O)OC)C(C)C)n4)cc3)cc2)c[nH]1)C(C)C [BMS-790052]	15	0.45 nM	11	0.31 nM	0.03 nM	0.31 to 0.45 nM	11 fold	–	–	–	–	–	–
CC(C)(C)NC(=O)N[C@H](C(=O)N1C[C@H]2[C@@H]([C@H]1C(=O)NC(CC1CCC1)C(=O)C(N)=O)C2(C)C)C(C)(C)C (stereo partly shown) [Boceprevir, boceprevir]	1.45	273 nM	2.44	460 nM	–	–	–	–	–	–	–	–	–
CCc1cc(CC[C@]2(C3CCCC3)CC(O)=C(Cc3nc4nc(C)cc(C)n4n3)C(=O)O2)cc(CC)n1 [Filibuvir, filibuvir]	7.4	895 nM	17	2040 nM	121 nM	–	approximately 17 fold	–	–	–	–	–	–
COC(=O)N[C@H](C(=O)N1CC2(CC2)C[C@H]1c1nc(-c2ccc3c(c2)C(F)(F)c2cc(-c4ccc5[nH]c([C@@H]6[C@H]7CC[C@H](C7)N6C(=O)[C@@H](NC(=O)OC)C(C)C)nc5c4)ccc2-3)c[nH]1)C(C)C [GS-5885]	9758	–	22370	–	–	–	approximately 10.000 fold	40 nM	92 nM	0.0041 nM	40 to 92 nM	–	–
CC(C)OC(=O)[C@H](C)N[P@](=O)(OC[C@H]1O[C@@H](n2ccc(=O)[nH]c2=O)[C@](C)(F)[C@@H]1O)Oc1ccccc1 [GS-7977]	0.15	–	0.31	–	–	–	–	5.8 nM	12 nM	40 nM	–	–	–
Fc1ccccc1-c1nc2ccn(Cc3ccc(-c4ccc(C(F)(F)F)cc4C(F)(F)F)nn3)cc-2n1 [GS-9190]	18	–	17	–	–	–	approximately 17 fold	46 nM	42 nM	3 nM	–	–	–
CC[C@@H]1C[C@]1(NC(=O)[C@@H]1C[C@@H](Oc2cc(-c3csc(NC(C)C)n3)nc3c(Cl)c(OCCN4CCOCC4)ccc23)CN1C(=O)[C@@H](NC(=O)O[C@@H]1C[C@@H]2C[C@@H]2C1)C(C)(C)C)C(=O)O [GS-9451]	97	–	173	–	–	–	–	921 nM	1650 nM	10 nM	–	–	–
CC1=CC[C@H](C(=O)N(c2cc(C#CC(C)(C)C)sc2C(=O)O)[C@H]2CC[C@](O)(CO[C@H]3CCOC3)CC2)CC1 [GS-9669]	33	–	61	–	–	–	~60 fold	125 nM	230 nM	3.8 nM	–	–	–
CNC(=O)c1c(-c2ccc(F)cc2)oc2cc(N(CCO)S(C)(=O)=O)c(C3CC3)cc12 [HCV-796]	0.12	2.4 nM	0.14	2.8 nM	20 nM	–	–	–	–	–	–	~7 fold	–
CN(C)CCN(C)[C@H]1COc2ccccc2-c2c(C3CCCCC3)c3ccc(C(=O)O)cc3n2C1 [MK-3281]	0.31	180 nM	0.47	277 nM	587 nM	–	–	–	–	–	–	about 2 fold	–
C=C[C@@H]1C[C@]1(NC(=O)[C@@H]1C[C@@H]2CN1C(=O)[C@H](C(C)(C)C)NC(=O)O[C@@H]1C[C@H]1CCCCCc1nc3ccc(OC)cc3nc1O2)C(=O)NS(=O)(=O)C1CC1 [MK-5172]	28	23 nM	74	60 nM	0.81 nM	–	–	–	–	–	–	–	–
C/C=C/C[C@@H](C)[C@@H](O)[C@H]1C(=O)N[C@@H](CC)C(=O)N(C)[C@H](SCCN(C)C)C(=O)N(C)[C@@H](CC(C)(C)O)C(=O)N[C@@H](C(C)C)C(=O)N(C)[C@@H](CC(C)C)C(=O)N[C@@H](C)C(=O)N[C@H](C)C(=O)N(C)[C@@H](CC(C)C)C(=O)N(C)[C@@H](CC(C)C)C(=O)N(C)[C@@H](C(C)C)C(=O)N1C [SCY-635]	0.91	59 nM	1.2	78 nM	65 nM	–	–	–	–	–	–	–	equivalent potency
CCC[C@H](NC(=O)[C@@H]1[C@H]2CCC[C@H]2CN1C(=O)[C@@H](NC(=O)[C@@H](NC(=O)c1cnccn1)C1CCCCC1)C(C)(C)C)C(=O)C(=O)NC1CC1 [Telaprevir, telaprevir]	3.27	1330 nM	1.6	650 nM	407 nM	–	–	–	–	–	–	–	–
